Results from article PMC6277767, “Broad and Region-Specific Impacts of the Synthetic Cannabinoid CP 55,940 in Adolescent and Adult Female Mouse Brains” (Frontiers in Molecular Neuroscience, 2018).

System: CD1 female mouse brain lipidome
Test: Brain-region lipid levels (HPLC/MS/MS lipidomics) 2 h after single i.p. 3 mg/kg CP 55,940 vs vehicle
Assay type: in vivo
Parameters: N-arachidonoyl phenylalanine level, Mean / N-stearoyl tryptophan level, Mean / N-stearoyl proline level, Mean / N-stearoyl leucine level, Mean / N-stearoyl phenylalanine level, Mean / N-stearoyl serine level, Mean / N-stearoyl methionine level, Mean: unit: moles per gram
Details: thalamus, 3 mg/kg CP 55,940
Experimental: The Bloomington Institutional Animal Care and Use Committee of Indiana University reviewed and approved the animal procedures. Female mice from the CD1 strain were utilized to match our study examining THC’s effects on the brain lipidome ([Leishman et al., 2018]). Mice were given a single i.p. injection of either 3 mg/kg CP or 1:1:18 cremophor:ethanol:saline vehicle (please refer to the section “3 mg/kg CP Is Relevant for Synthetic Cannabinoid Abuse and Has Stronger Effects on the Female Mouse Brain Lipidome During Adolescence” for a justification of dose and use of female mice). Three different age groups were given injections: PND 35 and PND 50 adolescents, and adult mice (PND 113). At least eight mice in each age group received CP and at least eight received vehicle. Matching the THC study time course ([Leishman et al., 2018]), mice were sacrificed via rapid decapitation 2 h after injection. Brains were immediately removed and flash-frozen in liquid nitrogen, and then stored at -80°C until dissections were performed. Brains were dissected on an ice-cold dissection plate into the following regions: STR, HIPP, CER, THAL, CTX, HYP, MID, and STEM. These abbreviations for these brain areas will be used exclusively when discussing the results generated by these specific dissections. Each dissected area was immediately placed in liquid nitrogen and then stored at -80°C until used for lipid extraction.
Tissue extracts were performed as previously described ([Bradshaw et al., 2006]; [Stuart et al., 2013]; [Raboune et al., 2014]; [Leishman et al., 2016a],[b], [2017], [2018]). First, samples were shock frozen in liquid nitrogen, weighed, and transferred to a centrifuge tube. The mass of the largest sample was multiplied by 50 to determine how many milliliters of HPLC-grade methanol (Fisher, Fair Lawn, NJ, United States) to add. Then, samples were spiked with 500 pmol deuterium-labeled NAGly (d8NAGly; Cayman Chemical, Ann Arbor, MI, United States). Samples were placed on ice in darkness for 2 h then individually homogenized and centrifuged at 19,000 × g for 20 min at 20°C. Supernatants were diluted with HPLC water (purified in house) to make a solution of 75% water, 25% supernatant. Lipids were partially purified on C18 solid phase extraction columns (Agilent, Palo Alto, CA, United States). A series of four elutions with 1.5 mL of 60%, 75%, 85%, and 100% methanol were collected ([Stuart et al., 2013]; [Leishman et al., 2016a],[b], [2018]).
As previously described ([Bradshaw et al., 2006]; [Tan et al., 2006]; [Smoum et al., 2010]; [Stuart et al., 2013]; [Tortoriello et al., 2013]; [Raboune et al., 2014]; [Leishman et al., 2016a],[b], [2017], [2018]), samples were analyzed using an Applied Biosystems API 3000 triple quadrupole mass spectrometer with electrospray ionization (Foster City, CA, United States). Using an Agilent XDB-C18 reversed phase analytical column and optimized mobile phase gradients, 20 μL from each elution were chromatographed. Two Shimadzu 10ADvp pumps (Columbia, MD, United States) provided the pressure for gradient elution. Mobile phase A: 20% methanol, 80% water (v/v) and 1 mM ammonium acetate (Sigma, St. Louis, MO, United States). Mobile phase B: 100% methanol, 1 mM ammonium acetate. Every method run began with 0% mobile phase B, reached 100% mobile phase B flowing at 0.2 mL/min, and gradually returned to 0% mobile phase B.
This screening library will be referred to as the lipidome when discussing data from this study. HPLC/MS/MS data were analyzed using Analyst software (Applied Biosystems) ([Bradshaw et al., 2006]; [Tan et al., 2006]; [Stuart et al., 2013]; [Tortoriello et al., 2013]; [Raboune et al., 2014]; [Leishman et al., 2016a],[b], [2017], [2018]). Chromatograms (Supplementary Figure 3) were generated by determining the retention time of analytes from the analytical column with a [M-1] or [M+1] parent peak and a fragmentation peak corresponding to the programmed values. […]

CCCCCCC(C)(C)c1ccc([C@@H]2C[C@H](O)CC[C@H]2CCCO)c(O)c1 [CP 55,940]
N-oleoyl glycine Direction (relative to Veh) (PND 35): ↓ | N-oleoyl glycine Magnitude (x Veh level) (PND 35): 0.91 x Veh level | N-oleoyl leucine Direction (relative to Veh) (PND 35): ↑ | N-oleoyl leucine Magnitude (x Veh level) (PND 35): 1.27 x Veh level | N-oleoyl valine Direction (relative to Veh) (PND 35): ↑ | N-oleoyl valine Magnitude (x Veh level) (PND 35): 1.44 x Veh level | N-palmitoyl GABA Direction (relative to Veh) (PND 35): ↑ | N-palmitoyl GABA Magnitude (x Veh level) (PND 35): 1.21 x Veh level | N-palmitoyl leucine, Direction (relative to Veh) (PND 35): ↑ | N-palmitoyl leucine, Magnitude (x Veh level) (PND 35): 1.42 x Veh level | N-palmitoyl phenylalanine Direction (relative to Veh) (PND 35): ↑ | N-palmitoyl phenylalanine Magnitude (x Veh level) (PND 35): 1.35 x Veh level | N-palmitoyl tyrosine Magnitude (x Veh level) (PND 35): 1.34 x Veh level | N-palmitoyl tyrosine, Direction (relative to Veh) (PND 35): ↑ | N-palmitoyl valine Direction (relative to Veh) (PND 35): ↑ | N-palmitoyl valine Magnitude (x Veh level) (PND 35): 1.79 x Veh level | N-stearoyl serine Direction (relative to Veh) (PND 35): ↓ | N-stearoyl serine Magnitude (x Veh level) (PND 35): 0.83 x Veh level | N-stearoyl tyrosine Direction (relative to Veh) (PND 35): ↓ | N-stearoyl tyrosine Magnitude (x Veh level) (PND 35): 0.81 x Veh level | N-stearoyl valine Direction (relative to Veh) (PND 35): ↑ | N-stearoyl valine Magnitude (x Veh level) (PND 35): 1.26 x Veh level | PGE2 Direction (relative to Veh) (PND 35): ↑ | PGE2 Magnitude (x Veh level) (PND 35): 1.16 x Veh level | phosphoLEA Direction (relative to Veh) (PND 35): ↑ | phosphoLEA Magnitude (x Veh level) (PND 35): 1.24 x Veh level | 2-arachidonoyl glycerol level, Mean (PND 35 adolescent female mice): 3.59E-10 | 2-linoleoyl glycerol level, Mean (PND 35 adolescent female mice): 1.52E-10 | 2-oleoyl glycerol level, Mean (PND 35 adolescent female mice): 1.68E-09 | 2-palmitoyl glycerol level, Mean (PND 35 adolescent female mice): 5.34E-10 | 6-ketoPGF1α level, Mean (PND 35 adolescent female mice): 1.42E-11 | Arachidonic acid level, Mean (PND 35 adolescent female mice): 2.14E-09 | Linoleic acid level, Mean (PND 35 adolescent female mice): 5.7E-10 | N- stearoyl valine level, Mean (PND 35 adolescent female mice): 1.07E-12 | N-arachidonoyl GABA level, Mean (PND 35 adolescent female mice): 2.62E-11 | N-arachidonoyl alanine level, Mean (PND 35 adolescent female mice): 1.02E-11 | N-arachidonoyl dopamine level, Mean (PND 35 adolescent female mice): BDL | N-arachidonoyl ethanolamine level, Mean (PND 35 adolescent female mice): 2.8E-11 | N-arachidonoyl glycine level, Mean (PND 35 adolescent female mice): 4.62E-11 | N-arachidonoyl phenylalanine level, Mean (PND 35 adolescent female mice): 1.31E-12 | N-arachidonoyl serine level, Mean (PND 35 adolescent female mice): 6.28E-12 | N-arachidonoyl taurine level, Mean (PND 35 adolescent female mice): 5.99E-11 | N-arachidonoyl tryptophan level, Mean (PND 35 adolescent female mice): BDL | N-arachidonoyl tyrosine level, Mean (PND 35 adolescent female mice): 7.9E-13 | N-docosahexaenoyl GABA level, Mean (PND 35 adolescent female mice): 2.9E-12 | N-docosahexaenoyl alanine level, Mean (PND 35 adolescent female mice): 4.07E-12 | N-docosahexaenoyl ethanolamine level, Mean (PND 35 adolescent female mice): 4.03E-11 | N-docosahexaenoyl glycine level, Mean (PND 35 adolescent female mice): 1.76E-11 | N-docosahexaenoyl leucine level, Mean (PND 35 adolescent female mice): 8.15E-13 | N-docosahexaenoyl phenylalanine level, Mean (PND 35 adolescent female mice): 1.14E-12 | N-docosahexaenoyl proline level, Mean (PND 35 adolescent female mice): BDL | N-docosahexaenoyl serine level, Mean (PND 35 adolescent female mice): 2.59E-11 | N-docosahexaenoyl tyrosine level, Mean (PND 35 adolescent female mice): 7.13E-13 | N-docosahexaenoyl valine level, Mean (PND 35 adolescent female mice): 2E-13 | N-linoleoyl GABA level, Mean (PND 35 adolescent female mice): 9.8E-13 | N-linoleoyl alanine level, Mean (PND 35 adolescent female mice): 1.66E-12 | N-linoleoyl ethanolamine level, Mean (PND 35 adolescent female mice): 5.07E-11 | N-linoleoyl glycine level, Mean (PND 35 adolescent female mice): 4.36E-12 | N-linoleoyl leucine level, Mean (PND 35 adolescent female mice): 3.45E-13 | N-linoleoyl methionine level, Mean (PND 35 adolescent female mice): BDL | N-linoleoyl proline level, Mean (PND 35 adolescent female mice): BDL | N-linoleoyl serine level, Mean (PND 35 adolescent female mice): 5.67E-11 | N-linoleoyl tryptophan level, Mean (PND 35 adolescent female mice): BDL | N-linoleoyl tyrosine level, Mean (PND 35 adolescent female mice): BDL | N-nervonoyl valine level, Mean (PND 35 adolescent female mice): BDL | N-oleoyl GABA level, Mean (PND 35 adolescent female mice): 5.58E-12 | N-oleoyl alanine level, Mean (PND 35 adolescent female mice): 7.79E-12 | N-oleoyl dopamine level, Mean (PND 35 adolescent female mice): BDL | N-oleoyl ethanolamine level, Mean (PND 35 adolescent female mice): 1.71E-10 | N-oleoyl glycine level, Mean (PND 35 adolescent female mice): 2.36E-11 | N-oleoyl leucine level, Mean (PND 35 adolescent female mice): 2.09E-12 | N-oleoyl methionine level, Mean (PND 35 adolescent female mice): 1.17E-12 | N-oleoyl phenylalanine level, Mean (PND 35 adolescent female mice): 1.2E-12 | N-oleoyl serine level, Mean (PND 35 adolescent female mice): 3.24E-10 | N-oleoyl tryptophan level, Mean (PND 35 adolescent female mice): 1.87E-13 | N-oleoyl tyrosine level, Mean (PND 35 adolescent female mice): 4.87E-13 | N-oleoyl valine level, Mean (PND 35 adolescent female mice): 9.01E-13 | N-palmitoyl GABA level, Mean (PND 35 adolescent female mice): 1.41E-11 | N-palmitoyl alanine level, Mean (PND 35 adolescent female mice): 1.21E-11 | N-palmitoyl ethanolamine level, Mean (PND 35 adolescent female mice): 8.69E-11 | N-palmitoyl glycine level, Mean (PND 35 adolescent female mice): 4.99E-11 | N-palmitoyl leucine level, Mean (PND 35 adolescent female mice): 4.1E-12 | N-palmitoyl methionine level, Mean (PND 35 adolescent female mice): 1.84E-12 | N-palmitoyl phenylalanine level, Mean (PND 35 adolescent female mice): 2.75E-12 | N-palmitoyl proline level, Mean (PND 35 adolescent female mice): 1.05E-12 | N-palmitoyl serine level, Mean (PND 35 adolescent female mice): 1.05E-10 | N-palmitoyl tryptophan level, Mean (PND 35 adolescent female mice): 4.31E-13 | N-palmitoyl tyrosine level, Mean (PND 35 adolescent female mice): 1.31E-12 | N-palmitoyl valine level, Mean (PND 35 adolescent female mice): 2.65E-12 | N-stearoyl GABA level, Mean (PND 35 adolescent female mice): 1.05E-11 | N-stearoyl alanine level, Mean (PND 35 adolescent female mice): 1.24E-11 | N-stearoyl ethanolamine level, Mean (PND 35 adolescent female mice): 1.97E-11 | N-stearoyl glycine level, Mean (PND 35 adolescent female mice): 2.74E-11 | N-stearoyl leucine level, Mean (PND 35 adolescent female mice): 1.66E-12 | N-stearoyl methionine level, Mean (PND 35 adolescent female mice): 1.9E-12 | N-stearoyl phenylalanine level, Mean (PND 35 adolescent female mice): 2.22E-12 | N-stearoyl proline level, Mean (PND 35 adolescent female mice): 5.08E-13 | N-stearoyl serine level, Mean (PND 35 adolescent female mice): 3.19E-11 | N-stearoyl tryptophan level, Mean (PND 35 adolescent female mice): 1.26E-12 | N-stearoyl tyrosine level, Mean (PND 35 adolescent female mice): 1.15E-13 | Oleic acid level, Mean (PND 35 adolescent female mice): 1.67E-09 | PGE2 level, Mean (PND 35 adolescent female mice): 6.31E-10 | PhosphoLEA level, Mean (PND 35 adolescent female mice): 2.93E-11
